Measured values reported in patent publication US12577227B2, “WDR5 inhibitors and modulators” (Vanderbilt University, priority 2019, dated 2026).

System: MV4:11 human cancer cell lines
Assay: Cellular viability / anti-proliferative activity (CellTiter-Glo)
Assay type: cell-based
Details: MV4-11, 120 h, MV-4-11 cells, 5 day protocol, mean of minimum two replicates, read-out: GI50 on cellular proliferation of MV4:11 human cancer cell lines
Experimental: Cellular Viability of Human Tumor Cell Lines
Anti-Proliferative Activity Using MLL-Harboring Cell Lines.
MV-4-11 and K562 cells are grown in IMDM media supplemented with 10% FBS and […], Molm-13 cells are cultured in RPMI-1640 media supplemented with 10% FBS and 1% o penicillin/streptomycin. Viability assays are performed by dispensing 200 cells at 7200 cells/mL into each well of an opaque 384-well plate and adding compounds at the indicated concentrations in a final volume of 32 μL and a final concentration of DMSO of 0.3% for all samples. A certain range of compound concentrations is made through a series of 2-fold dilutions starting 30 μM at the highest, total 22 dilutions. After a set incubation period, 5 day protocol, the viability of cells in each well is assessed using the CellTiter-Glo assay (Promega), read on a 96 Microplane Luminometer (Cytation 3, BioTek). Serial dilutions of each cell type are performed in all assays to generate standard curves and the final densities of cells are determined within the dynamic range of the instrument. GI50 values are calculated based on XLfit software (IDBS, Guildford, UK) with Sigmoidal Dose-Response Model. Each compound is tested in minimum of two replicates. Data are expressed as mean.

| SMILES | GI50 |
| --- | --- |
| Cc1cc(C)nc(CN2CCOc3c(cc(Cn4ccnc4C)cc3-c3cc(C)ccc3C)C2=O)c1 [Example 49, 9-(2,5-Dimethylphenyl)-4-((4,6-dimethylpyridin-2-yl)methyl)-7-((2-methyl-1H-imidazol-1-yl)methyl)-3,4-dihydrobenzo[f][1,4]oxazepin-5(2H)-one] | 0.045 µM |
| COc1ccc2nc(C)cc(N3CCOc4c(cc(Cn5ccnc5)cc4-c4cn(C)nc4C(F)(F)F)C3=O)c2c1 [Example 68, 7-((1H-imidazol-1-yl)methyl)-4-(6-methoxy-2-methylquinolin-4-yl)-9-(1-methyl-3-(trifluoromethyl)-1H-pyrazol-4-yl)-3,4-dihydrobenzo[f][1,4]oxazepin-5(2H)-one] | 0.1 µM |
| COc1ccnc(Cn2cnc3c(-c4cn(C)nc4C(F)(F)F)cc(Cn4ccnc4C)cc3c2=O)c1 [Example 55, 3-((4-Methoxypyridin-2-yl)methyl)-6-((2-methyl-1H-imidazol-1-yl)methyl)-8-(1-methyl-3-(trifluoromethyl)-1H-pyrazol-4-yl)quinazolin-4(3H)-one] | 0.57 µM |
| COc1cc(CN2CCOc3c(cc(CNc4nocc4C)cc3-c3ccc(F)cc3C)C2=O)cc(OC)c1 [Example 7, 4-(3,5-Dimethoxybenzyl)-9-(4-fluoro-2-methylphenyl)-7-(((4-methylisoxazol-3-yl)amino)methyl)-3,4-dihydrobenzo[f][1,4]oxazepin-5(2H)-one] | > 0.94 µM |
| Cc1ccnc(CN2CCOc3c(cc(Cn4ccnc4C)cc3-c3ccc(F)cc3C)C2=O)c1 [Example 25, 9-(4-Fluoro-2-methylphenyl)-7-((2-methyl-1H-imidazol-1-yl)methyl)-4-((4-methylpyridin-2-yl)methyl)-3,4-dihydrobenzo[f][1,4]oxazepin-5(2H)-one] | 0.3 µM |
| Cc1cc(C)nc(CN2CCOc3c(cc(Cn4ccnc4C)cc3-c3ccccc3C)C2=O)c1 [Example 45, 4-((4,6-Dimethylpyridin-2-yl)methyl)-7-((2-methyl-1H-imidazol-1-yl)methyl)-9-(o-tolyl)-3,4-dihydrobenzo[f][1,4]oxazepin-5(2H)-one] | 0.157 µM |
| Cc1cc(C)nc(CN2CCOc3c(cc(Cn4ccn(C)c4=N)cc3-c3ccc(F)cc3C)C2=O)c1 [Example 12, 4-((4,6-Dimethylpyridin-2-yl)methyl)-9-(4-fluoro-2-methylphenyl)-7-((2-imino-3-methyl-2,3-dihydro-1H-imidazol-1-yl)methyl)-3,4-dihydrobenzo[f][1,4]oxazepin-5(2H)-one] | 0.0035 µM |
| COc1ccc2c(c1)C(N1CCOc3c(cc(Cn4ccnc4C)cc3-c3cn(C)nc3C(F)(F)F)C1=O)CCC2 (stereo not shown) [Example 57, 4-(7-Methoxy-1,2,3,4-tetrahydronaphthalen-1-yl)-7-((2-methyl-1H-imidazol-1-yl)methyl)-9-(1-methyl-3-(trifluoromethyl)-1H-pyrazol-4-yl)-3,4-dihydrobenzo[f][1,4]oxazepin-5(2H)-one] | 0.029 µM |
| COc1cc(CN2CCOc3c(cc(Cn4ccn(C)c4=N)cc3-c3cn(C)nc3C(F)(F)F)C2=O)cc(OC)c1 [Example 16, 4-(3,5-Dimethoxybenzyl)-7-((2-imino-3-methyl-2,3-dihydro-1H-imidazol-1-yl)methyl)-9-(1-methyl-3-(trifluoromethyl)-1H-pyrazol-4-yl)-3,4-dihydrobenzo[f][1,4]oxazepin-5(2H)-one] | 0.079 µM |
| COc1ccc2nccc(N3CCOc4c(cc(Cn5ccnc5C)cc4-c4cn(C)nc4C(F)(F)F)C3=O)c2c1 [Example 58, 4-(6-Methoxyquinolin-4-yl)-7-((2-methyl-1H-imidazol-1-yl)methyl)-9-(1-methyl-3-(trifluoromethyl)-1H-pyrazol-4-yl)-3,4-dihydrobenzo[f][1,4]oxazepin-5(2H)-one] | 0.077 µM |
| Cc1ccnc(CN2CCOc3c(cc(Cn4cnn(C)c4=N)cc3-c3cn(C)nc3C(F)(F)F)C2=O)c1 [Example 32, 7-((5-imino-1-methyl-1,5-dihydro-4H-1,2,4-triazol-4-yl)methyl)-9-(1-methyl-3-(trifluoromethyl)-1H-pyrazol-4-yl)-4-((4-methylpyridin-2-yl)methyl)-3,4-dihydrobenzo[f][1,4]oxazepin-5(2H)-one] | 0.775 µM |
| CCc1nccn1Cc1cc2c(c(-c3cn(C)nc3C(F)(F)F)c1)OCCN(Cc1cc(C)cc(C)n1)C2=O [Example 38, 4-((4,6-Dimethylpyridin-2-yl)methyl)-7-((2-ethyl-1H-imidazol-1-yl)methyl)-9-(1-methyl-3-(trifluoromethyl)-1H-pyrazol-4-yl)-3,4-dihydrobenzo[f][1,4]oxazepin-5(2H)-one] | 0.262 µM |
| COc1ccnc([C@H](C)N2CCOc3c(cc(Cn4cnn(C)c4=N)cc3-c3ccc(F)cc3Cl)C2=O)c1 [Example 54, (S)-9-(2-Chloro-4-fluorophenyl)-7-((5-imino-1-methyl-1,5-dihydro-4H-1,2,4-triazol-4-yl)methyl)-4-(1-(4-methoxypyridin-2-yl)ethyl)-3,4-dihydrobenzo[f][1,4]oxazepin-5(2H)-one] | 0.009 µM |
| COc1ccnc([C@H](C)N2CCOc3c(cc(Cn4ccnc4C)cc3-c3cn(C)nc3C(F)(F)F)C2=O)c1 [Example 47, (S)-4-(1-(4-Methoxypyridin-2-yl)ethyl)-7-((2-methyl-1H-imidazol-1-yl)methyl)-9-(1-methyl-3-(trifluoromethyl)-1H-pyrazol-4-yl)-3,4-dihydrobenzo[f][1,4]oxazepin-5(2H)-one] | 0.031 µM |
| Cc1cc(C)nc(CN2CCOc3c(cc(Cn4ccnc4C)cc3-c3cc(Cl)ccc3C)C2=O)c1 [Example 52, 9-(5-Chloro-2-methylphenyl)-4-((4,6-dimethylpyridin-2-yl)methyl)-7-((2-methyl-1H-imidazol-1-yl)methyl)-3,4-dihydrobenzo[f][1,4]oxazepin-5(2H)-one] | 0.063 µM |
| CCc1cc(C(=O)NCCOC)c2nccc(N3CCOc4c(cc(Cn5ccnc5)cc4-c4cn(C)nc4C(F)(F)F)C3=O)c2c1 [Example 74, 4-(7-((1H-imidazol-1-yl)methyl)-9-(1-methyl-3-(trifluoromethyl)-1H-pyrazol-4-yl)-5-oxo-2,3-dihydrobenzo[f][1,4]oxazepin-4(5H)-yl)-6-ethyl-N-(2-methoxyethyl)quinoline-8-carboxamide] | 0.458 µM |

The remaining lines, values ahead:

| GI50 | SMILES |
| --- | --- |
| 7.98 µM | COc1cc(Cn2cnc3c(-c4ccc(F)cc4C)cc(Cn4ccoc4=N)cc3c2=O)cc(OC)c1 [Example 19, 3-(3,5-Dimethoxybenzyl)-8-(4-fluoro-2-methylphenyl)-6-((2-iminooxazol-3(2H)-yl)methyl)quinazolin-4(3H)-one] |
| 0.092 µM | COc1cc(CN2CNc3c(cc(Cn4ccn(C)c4=N)cc3-c3ccc(F)cc3C)C2=O)cc(OC)c1 [Example 23, 3-(3,5-Dimethoxybenzyl)-8-(4-fluoro-2-methylphenyl)-6-((2-imino-3-methyl-2,3-dihydro-1H-imidazol-1-yl)methyl)-2,3-dihydroquinazolin-4(1H)-one] |
| 0.019 µM | COc1cc(CN2CCOc3c(cc(Cn4ccn(C)c4=N)cc3-c3ccc(F)cc3C)C2=O)cc(OC)c1 [Example 3, 4-(3,5-Dimethoxybenzyl)-9-(4-fluoro-2-methylphenyl)-7-((2-imino-3-methyl-2,3-dihydro-1H-imidazol-1-yl)methyl)-3,4-dihydrobenzo[f][1,4]oxazepin-5(2H)-one] |
| > 0.94 µM | COc1cc(Cn2cnc3c(-c4ccc(F)cc4C)cc(Cn4ccc5cccnc54)cc3c2=O)cc(OC)c1 [Example 5, 6-((1H-Pyrrolo[2,3-b]pyridin-1-yl)methyl)-3-(3,5-dimethoxybenzyl)-8-(4-fluoro-2-methylphenyl)quinazolin-4(3H)-one] |
| 0.086 µM | COc1cc(CN2CCOc3c(cc(Cn4cnn(C)c4=N)cc3-c3ccc(F)cc3C)C2=O)cc(OC)c1 [Example 6, 4-(3,5-Dimethoxybenzyl)-9-(4-fluoro-2-methylphenyl)-7-((5-imino-1-methyl-1,5-dihydro-4H-1,2,4-triazol-4-yl)methyl)-3,4-dihydrobenzo[f][1,4]oxazepin-5(2H)-one] |
| 0.194 µM | COc1cc(Cn2c(C)nc3c(-c4ccc(F)cc4C)cc(CNC4=NCCN4)cc3c2=O)cc(OC)c1 [Example 21, 6-(((4,5-Dihydro-1H-imidazol-2-yl)amino)methyl)-3-(3,5-dimethoxybenzyl)-8-(4-fluoro-2-methylphenyl)-2-methylquinazolin-4(3H)-one] |
| 0.355 µM | COc1cc(CN2CCOc3c(cc(Cn4ccccc4=N)cc3-c3ccc(F)cc3C)C2=O)cc(OC)c1 [Example 8, 4-(3,5-Dimethoxybenzyl)-9-(4-fluoro-2-methylphenyl)-7-((2-iminopyridin-1(2H)-yl)methyl)-3,4-dihydrobenzo[f][1,4]oxazepin-5(2H)-one] |
| 1.47 µM | COc1cc(CN2C[C@@H](C)Oc3c(cc(Cn4ccnc4C)cc3-c3ccc(F)cc3C)C2=O)cc(OC)c1 [Example 34, (R)-4-(3,5-Dimethoxybenzyl)-9-(4-fluoro-2-methylphenyl)-2-methyl-7-((2-methyl-1H-imidazol-1-yl)methyl)-3,4-dihydrobenzo[f][1,4]oxazepin-5(2H)-one] |
| > 0.94 µM | COc1cc(Cn2cnc3c(-c4ccc(F)cc4C)cc(Cc4c[nH]c5ccccc45)cc3c2=O)cc(OC)c1 [Example 2, 6-((1H-Indol-3-yl)methyl)-3-(3,5-dimethoxybenzyl)-8-(4-fluoro-2-methylphenyl)quinazolin-4(3H)-one] |
